Assay [1] deals with MDA-MB-231 cells. Put plainly: Cell-cycle analysis (PI staining, flow cytometry). The format is cell-based, human. To be noted: for cells in G2/M phase / cells in S phase / cells in G1 phase: 72 h; for cells in G2/M phase: control 11.04%; for cells in S phase: control 36.51%; for cells in G1 phase: control 52.44%. (In general: A flow cytometer gives signals particle by particle.)

Assay [2] deals with MDA-MB-231 cells. Put plainly: Cell apoptosis assay (annexin V-FITC/PI, flow cytometry). Conditions: 72 h, control 5.85%. The format is cell-based, human. The protocol: MDA-MB-231 cells were cultured in 6-well plates at 37 °C for 24 h, and then different concentrations of 22e (0, 0.475, 0.95 and 1.9 μM) were added. After 72 h of incubation, the cells were collected and suspended in binding buffer (500 μL). Finally, annexin V-fluorescein isothiocyanate (Annexin V-FITC, 5 μL) and propidium iodide (PI, 5 μL) were added, and the reaction was kept at room temperature in the dark for 10 min, then cell apoptosis was measured by flow cytometry.

Assay [3] concerns MDA-MB-231 cells. The assay is described as follows: Detection of intracellular ROS (DCFH-DA, flow cytometry). The format is cell-based, human. To be noted: 72 h, control 4.56%. The protocol: MDA-MB-231 cells were seeded overnight in 6-well plates, treated with different concentrations of 22e (0, 0.475, 0.95 and 1.9 μM) for another 72 h. After digestion and washing, the cell suspension was prepared and cultured with fluorescent probe 2′,7′-dichlorodihydrofluorescein diacetate (DCFH-DA, Sigma-Aldrich, Darmstadt, Germany) at 37 °C for 20 min. Then, after the cells were washed, the intracellular reactive oxygen species (ROS) was measured by flow cytometry at 488 nm (excitation wavelength) and 530 nm (emission wavelength).

For assay [4], the system named is MDA-MB-231 cells. Put plainly: Comet assay (DNA damage). The format is cell-based, human. Conditions: 72 h, control 0.48%. The procedure: DNA damage was detected by Comet Assay Kit (Keygen, Nanjing, China) according to the manufacturer’s instructions. Briefly, MDA-MB-231 cells were treated with 22e (0, 0.475, 0.95 and 1.9 μM) for 72 h. The collected cells were fixed on CometSlide for 15 min at 4 °C. Subsequently, the cells were incubated in lysis solution at 4 °C for 90 min, the slides were electrophoresed for 20 min, fixed in ethanol for 5 min, and stained with Vista Green DNA Dye. Finally, the data were got by fluorescence microscope.

Assay [5] deals with MDA-MB-231 cells. Put plainly: Wound healing assay (migration). The format is cell-based, human. Conditions: 22e 0.475, 0.95 and 1.9 μM, 24 h, versus untreated cells. The procedure:
MDA-MB-231 cells were cultured in 6-well plates at 37 °C for 24 h. After the cells attached, different concentrations of 22e (0, 0.475, 0.95 and 1.9 μM) were added. Sterile pipette tips were used to scratch evenly in 6-well plates, the floating cells were washed away with PBS, and the fresh culture medium was replaced. After incubation for 24 h, the cells were photographed and the migration distance was measured.

The subject of assay [6] is MDA-MB-231 cells. Put plainly: Transwell assay (invasion). To be noted: 22e 0.475, 0.95 and 1.9 μM, 24 h. The format is cell-based, human. The procedure:
MDA-MB-231 cells were seeded in 24-well transwell plates upper chambers, different concentrations of 22e (0, 0.475, 0.95 and 1.9 μM) were incubated on the lower surface for 24 h. The cells in the upper surface of the membrane were removed, and the migrated or invaded cells of the membranes bottom surface were placed in 0.1% crystal violet for staining for 30 min. Finally, the cells that migrated or invaded of the chamber bottom were photographed and counted.

Assay [7] has as its system MDA-MB-231 cells. The assay is described as follows: Adhesion assay. The format is cell-based, human. To be noted: 22e 0.475, 0.95 and 1.9 μM, 72 h. The protocol: Different concentrations of 22e (0, 0.475, 0.95 and 1.9 μM) were used to treat MDA-MB-231 cells for 72 h. Then the serum-free medium containing CaM stain was added, cell suspension (100 μL) was cultured to 96-well plates (2000 cells/well) for 1 h. Finally, plates were washed with PBS, fixed with 3.7% formaldehyde, washed with PBS again, and took pictures with fluorescence microscope.

Assay [8] deals with TNBC cell line MDA-MB-231. The assay is described as follows: CCK-8 assay, antiproliferative activity against MDA-MB-231. Conditions: Homo sapiens, MDA-MB-231, 72 h, read-out: IC50 MDA-MB-231. In general terms: Tetrazolium dyes change colour on reduction, which living cells bring about.

The term IC50 denotes the concentration at which inhibition is half-maximal.

Each structure is given as a SMILES string.

Turning to `COC(=O)[C@H](Cc1ccc(N(CCCl)CCCl)cc1)NC(=O)CCCC(=O)NCc1coc2ccc(OC)cc2c1=O` [Compound 22e, Methyl (S)-3-(4-(bis(2-chloroethyl)amino)phenyl)-2–(5-(((6-methoxy-4-oxo-4H-chromen-3-yl)methyl)amino)-5-oxopentanamido)propanoate], the “cells in G2/M phase” value is on record as 12.98% with MDA-MB-231 cells [1] (22e 0.475 μM), 14.53% in the assay with MDA-MB-231 cells [1] (22e 0.95 μM) and 21.28% with MDA-MB-231 cells [1] (22e 1.9 μM). Also, the “cells in S phase” value is reported as 36.58% in the assay with MDA-MB-231 cells [1] (22e 0.475 μM), 34.59% in the assay on MDA-MB-231 cells [1] (22e 0.95 μM) and 36.21% in the assay with MDA-MB-231 cells [1] (22e 1.9 μM). Also, the “cells in G1 phase” value was 50.44% in the assay on MDA-MB-231 cells [1] (22e 0.475 μM), 50.88% with MDA-MB-231 cells [1] (22e 0.95 μM) and 42.51% with MDA-MB-231 cells [1] (22e 1.9 μM). Besides, the “cells in the S phase (in words)” value with MDA-MB-231 cells [1] (22e 0.475, 0.95 and 1.9 μM versus control) was “remained essentially unchanged”. In addition, the total apoptosis ratio with MDA-MB-231 cells [2] (22e 0.475 μM) stood at 11.00%; in the assay on MDA-MB-231 cells [2] (22e 0.95 μM), 16.27%; in the assay on MDA-MB-231 cells [2] (22e 1.9 μM) it was 42.12%. Moreover, the “DCFH-DA positive cells ratio” value in the assay with MDA-MB-231 cells [3] (22e 0.475 μM) is reported as 8.05%; in the assay with MDA-MB-231 cells [3] (22e 0.95 μM), 18.47%; in the assay with MDA-MB-231 cells [3] (22e 1.9 μM), 45.98%. The “tail DNA percentage” value with MDA-MB-231 cells [4] (22e 0.475 μM) is listed as 19.95%; in the assay with MDA-MB-231 cells [4] (22e 0.95 μM), 38.15%; in the assay with MDA-MB-231 cells [4] (22e 1.9 μM), 48.73%. The “wound closure distance (migration), in words” value in the assay with MDA-MB-231 cells [5] is listed as “significantly shortened”. The “MDA-MB-231 cells invasion, in words” value in the assay on MDA-MB-231 cells [6] was “significantly inhibited”. Also, the “adhesion of MDA-MB-231 cells, in words” value in the assay with MDA-MB-231 cells [7] was “inhibit the adhesion of MDA-MB-231 cells in a concentration-dependent manner”. Further, the concentration for half-maximal inhibition (IC50) in assay [8] is 1900 ± 180 nM.

For the origin of these results see paper PMC8725944, “Design and synthesis of chromone-nitrogen mustard derivatives and evaluation of anti-breast cancer activity” (Journal of Enzyme Inhibition and Medicinal Chemistry, 2021).
